Earlier results as cited in US11147778B2, “Siderophore-polymer conjugates for increasing bacterial sensitivity to antibiotics” (Wisconsin Alumni Research Foundation, priority 2016, dated 2021).

Tests used:
Set-up in all cases: key: S = susceptible; I = intermediate; R = resistant
[1] = test system: Pseudomonas aeruginosa 9139; conditions: strain 9139; cited from earlier work
[2] = test system: Pseudomonas aeruginosa 24530; conditions: strain 24530; cited from earlier work
[3] = test system: Pseudomonas aeruginosa 3072; conditions: strain 3072; cited from earlier work
[4] = test system: Pseudomonas aeruginosa 26975; conditions: strain 26975; cited from earlier work
[5] = test system: Pseudomonas aeruginosa 3076; conditions: strain 3076; cited from earlier work
[6] = test system: Pseudomonas aeruginosa 3071; conditions: strain 3071; cited from earlier work
[7] = test system: Pseudomonas aeruginosa 3068; conditions: strain 3068; cited from earlier work
[8] = test system: Pseudomonas aeruginosa 3070; conditions: strain 3070; cited from earlier work
[9] = test system: Pseudomonas aeruginosa 2638; conditions: strain 2638; cited from earlier work
[10] = test system: Pseudomonas aeruginosa 823; conditions: strain 823; cited from earlier work

For `CC(C)(O/N=C(\C(=O)N[C@@H]1C(=O)N2C(C(=O)[O-])=C(C[n+]3ccccc3)CS[C@H]12)c1csc(N)n1)C(=O)O` [CAZ, ceftazidime], the “Phenotype (drug resistance profile)” value [1] is given as “S”, the “Phenotype (drug resistance profile)” value [2] is given as “R” and the “Phenotype (drug resistance profile)” value [3] is given as “S”. The “Phenotype (drug resistance profile)” value [4] was “R”, the “Phenotype (drug resistance profile)” value [5] was “R” and the “Phenotype (drug resistance profile)” value [6] was “CAZ-R, TZP-R, CIP-R”. The “Phenotype (drug resistance profile)” value [7] was “S”, the “Phenotype (drug resistance profile)” value [8] was “R” and the “Phenotype (drug resistance profile)” value [9] was “CAZ-R, TZP-R, CIP-R, TOB-R”. For the same compound, the “Phenotype (drug resistance profile)” value [10] was “R”.

For `O=C(O)c1cn(C2CC2)c2cc(N3CCNCC3)c(F)cc2c1=O` [CIP, ciprofloxacin], the “Phenotype (drug resistance profile)” value [1] is given as “S”, the “Phenotype (drug resistance profile)” value [2] is given as “S” and the “Phenotype (drug resistance profile)” value [3] is given as “R”. For the same compound, the “Phenotype (drug resistance profile)” value [4] was “S”, the “Phenotype (drug resistance profile)” value [5] was “R” and the “Phenotype (drug resistance profile)” value [6] was “CAZ-R, TZP-R, CIP-R”. For the same compound, the “Phenotype (drug resistance profile)” value [7] was “R”, the “Phenotype (drug resistance profile)” value [8] was “R” and the “Phenotype (drug resistance profile)” value [9] was “CAZ-R, TZP-R, CIP-R, TOB-R”. For the same compound, the “Phenotype (drug resistance profile)” value [10] was “S”.

In the case of `C[C@@H](O)[C@H]1C(=O)N2C(C(=O)O)=C(S[C@@H]3CN[C@H](CNS(N)(=O)=O)C3)[C@H](C)[C@H]12` [DOR, doripenem], the “Phenotype (drug resistance profile)” value [1] is listed as “S”, the “Phenotype (drug resistance profile)” value [2] is listed as “DOR-R, IPM-R, MEM-R, FEP-R,” and the “Phenotype (drug resistance profile)” value [3] is listed as “R”. For the same compound, the “Phenotype (drug resistance profile)” value [4] was “S”, the “Phenotype (drug resistance profile)” value [5] was “R” and the “Phenotype (drug resistance profile)” value [6] was “DOR-R, IPM-R, MEM-R, FEP-R,”. For the same compound, the “Phenotype (drug resistance profile)” value [7] was “DOR-R, IPM-R, MEM-R, FEP-R,”, the “Phenotype (drug resistance profile)” value [8] was “R” and the “Phenotype (drug resistance profile)” value [9] was “DOR-R, IPM-R, MEM-R, FEP-R,”. For the same compound, the “Phenotype (drug resistance profile)” value [10] was “S”.

In the case of `CO/N=C(\C(=O)N[C@@H]1C(=O)N2C(C(=O)[O-])=C(C[N+]3(C)CCCC3)CS[C@H]12)c1csc(N)n1` [FEP, cefepime], the “Phenotype (drug resistance profile)” value [1] is given as “R”, the “Phenotype (drug resistance profile)” value [2] is given as “DOR-R, IPM-R, MEM-R, FEP-R,” and the “Phenotype (drug resistance profile)” value [3] is given as “S”. The “Phenotype (drug resistance profile)” value [4] was “R”, the “Phenotype (drug resistance profile)” value [5] was “I” and the “Phenotype (drug resistance profile)” value [6] was “DOR-R, IPM-R, MEM-R, FEP-R,”. The “Phenotype (drug resistance profile)” value [7] was “DOR-R, IPM-R, MEM-R, FEP-R,”, the “Phenotype (drug resistance profile)” value [8] was “I” and the “Phenotype (drug resistance profile)” value [9] was “DOR-R, IPM-R, MEM-R, FEP-R,”. For the same compound, the “Phenotype (drug resistance profile)” value [10] was “R”.

For `C[C@@H](O)[C@H]1C(=O)N2C(C(=O)O)=C(S[C@@H]3CN[C@H](C(=O)N(C)C)C3)[C@H](C)[C@H]12` [MEM, meropenem], the “Phenotype (drug resistance profile)” value [1] is listed as “S”, the “Phenotype (drug resistance profile)” value [2] is listed as “DOR-R, IPM-R, MEM-R, FEP-R,” and the “Phenotype (drug resistance profile)” value [3] is listed as “R”. The “Phenotype (drug resistance profile)” value [4] was “S”, the “Phenotype (drug resistance profile)” value [5] was “R” and the “Phenotype (drug resistance profile)” value [6] was “DOR-R, IPM-R, MEM-R, FEP-R,”. For the same compound, the “Phenotype (drug resistance profile)” value [7] was “DOR-R, IPM-R, MEM-R, FEP-R,”, the “Phenotype (drug resistance profile)” value [8] was “R” and the “Phenotype (drug resistance profile)” value [9] was “DOR-R, IPM-R, MEM-R, FEP-R,”. The “Phenotype (drug resistance profile)” value [10] was “S”.

For `NC[C@H]1O[C@H](O[C@H]2[C@H](O)[C@@H](O[C@H]3O[C@H](CO)[C@@H](O)[C@H](N)[C@H]3O)[C@H](N)C[C@@H]2N)[C@H](N)C[C@@H]1O` [TOB, tobramycin], the “Phenotype (drug resistance profile)” value [1] is listed as “S”, the “Phenotype (drug resistance profile)” value [2] is listed as “S” and the “Phenotype (drug resistance profile)” value [3] is listed as “R”. For the same compound, the “Phenotype (drug resistance profile)” value [4] was “R”, the “Phenotype (drug resistance profile)” value [5] was “S” and the “Phenotype (drug resistance profile)” value [9] was “CAZ-R, TZP-R, CIP-R, TOB-R”. For the same compound, the “Phenotype (drug resistance profile)” value [10] was “S”.
